Laboratory results taken from patent US8883798B2, “Pyrimidine compounds inhibiting the formation of nitric oxide and prostaglandin E2, method of production thereof and use thereof” (Ustav Organicke Chemie a Biochemie Akademie Ved CR, V.V.I., priority 2011, dated 2014).

How the values were obtained:
[1] = system: production of prostaglandin E2 (PGE2); test: Production of prostaglandin E2 (PGE2) in cultures of mouse peritoneal cells stimulated with LPS (ELISA kit); type: cell-based, mice; settings: Table 3B, 6 h
Description: (§1) Under in vitro conditions, the effect of the pyrimidine compounds according to this invention was tested in terms of the production of nitric oxide (NO) and in terms of the production of prostaglandin E2 (PGE2) in cultures of the peritoneal cells of mice.
The influence on the production of prostaglandin E2 (PGE2) in vitro caused by the activity of the pyrimidine compounds according to the submitted invention was determined in cultures of the peritoneal cells of mice using a commercial kit (R&DSystems). The concentrations of PGE2 after lipopolysacharide (LPS) stimulation reached in the individual experiments values in a range of 22 to 91 ng·ml^−1 and for the purposes of comparison between the experiments were considered as 100%. The influence of the substances on the production of PGE2 was evaluated in percentage with respect to the control values.
(§2) Experiments were performed on mice peritoneal cells C57BL/6 (Charles River, Germany—AnLabu).
(§3) NO production was induced using IFN-g (5000 pg/mL) plus LPS (100 pg/mL); evaluated (Griess reagent) after 24 h of the cell cultivation (2×10^6/mL). PGE2 was induced using LPS (10 ng/mL); evaluated (ELISA) following 6 h cultivation of cells (3×10^6/mL). Cell longevity was evaluated using WST-1 (tetrazolium salt), following 24 h cultivation of cells (1×10^6/mL). The values mentioned in the table represent the effects of the substances tested in a concentration of 50 μmol·l^−1.

[2] = system: production of nitric oxide (NO); test: Production of nitric oxide (NO) in cultures of mouse peritoneal cells stimulated with IFN-γ plus LPS (Griess reagent); type: cell-based, mice; settings: Table 3B; substance 50 μmol·l^−1; IFN-g plus LPS; 24 h
Description: as §1
NO is a product of the metabolism of L-arginine, quickly changes to […], which are then measured using the Griess reagent system. Under normal conditions, the production of NO is practically zero. It only occurs after some stimulation. In these experiments, interferon-gamma (IFN-γ) and bacterial lipopolysacharide (LPS) were used as stimulators. The values of NO induced in this way fluctuated in the individual experiments in a range from 52 to 89 μmol·l^−1; for the purposes of comparison between the experiments they were considered as 100%. The production of NO after the application of the substances was expressed in percentage with respect to the control values. (The lower the value, the higher the inhibition effect of the substances on NO production.) IC50 are the concentrations of the substances reducing the production of NO by 50% with respect to the controls.
as §2, §3

peritoneal cells of mice = test: Cell viability of mouse peritoneal cells (WST-1 kit); type: cell-based; settings: Table 3B, substance 50 μmol·l^−1, 24 h
Description: Cell viability was determined in the standard way using a WST-1 kit (Roche). The values of the viability of the control cells were for the purposes of comparison between experiments considered as 100%. The influence of the substances on the longevity of the cells was evaluated in percentage with respect to the control values.
as §2, §3

Row | SMILES | Production of prostaglandins IC50 (μmol · 1^−1) average value and range of values [1] | Production of nitric oxide in % of the controls [2] | Cell viabilities in % of the controls (peritoneal cells of mice)
1 | CCCCc1c(-c2ccncc2)nc(N)nc1-c1cccs1 [Substance 91] | 29.01 ± 5.46; n = 4 μmol · 1^−1 | 63.95 ± 2.00; n = 4 % of the controls | 81.38 ± 6.86; n = 4 % of the controls
2 | CCCCc1c(-c2cccs2)nc(N)nc1-c1cccs1 [Substance 92] | 29.52 ± 11.77; n = 4 μmol · 1^−1 | 46.09 ± 7.92; n = 6 % of the controls | 102.36 ± 6.45; n = 8 % of the controls
3 | CCCCc1c(Cl)nc(N)nc1-c1ccco1 [Substance 101] | 6.60 ± 5.34; n = 4 μmol · 1^−1 | 29.35 ± 6.38; n = 6 % of the controls | 68.95 ± 3.02; n = 8 % of the controls
4 | CCCCc1c(-c2ccoc2)nc(N)nc1-c1ccoc1 [Substance 105] | 50.30 ± 9.52; n = 4 μmol · 1^−1 | 49.07 ± 4.67; n = 4 % of the controls | 101.86 ± 5.13; n = 4 % of the controls
5 | CCCCc1c(Cl)nc(N)nc1-c1ccoc1 [Substance 106] | 22.10 ± 3.44; n = 4 μmol · 1^−1 | 54.83 ± 2.82; n = 4 % of the controls | 100.38 ± 5.55; n = 8 % of the controls
6 | CCCCc1c(-c2ccccc2)nc(N)nc1-c1ccsc1 [Substance 107] | 68.07 ± 2.56; n = 4 μmol · 1^−1 | 69.69 ± 6.09; n = 4 % of the controls | 69.08 ± 1.78; n = 4 % of the controls
7 | CCCCc1c(-c2cccnc2)nc(N)nc1-c1ccsc1 [Substance 110] | 64.72 ± 14.00; n = 2 μmol · 1^−1 | 62.00 ± 2.93; n = 4 % of the controls | 90.73 ± 10.89; n = 4 % of the controls
8 | CCCCc1c(-c2ccsc2)nc(N)nc1-c1cccs1 [Substance 111] | 56.94 ± 12.51; n = 6 μmol · 1^−1 | 57.52 ± 1.81; n = 4 % of the controls | 105.47 ± 5.51; n = 8 % of the controls
9 | CCCCc1c(-c2ccoc2)nc(N)nc1-c1ccsc1 [Substance 113] | 85.05 ± 9.96; n = 4 μmol · 1^−1 | 63.79 ± 1.64; n = 6 % of the controls | 101.51 ± 12.74; n = 8 % of the controls
10 | CCCCc1c(-c2ccsc2)nc(N)nc1-c1ccsc1 [Substance 114] | 37.00 ± 16.33; n = 4 μmol · 1^−1 | 70.51 ± 5.78; n = 4 % of the controls | 118.67 ± 2.26; n = 8 % of the controls
11 | CCCCc1c(Cl)nc(N)nc1-c1ccsc1 [Substance 115] | 22.90 ± 11.94; n = 4 μmol · 1^−1 | 37.43 ± 8.29; n = 6 % of the controls | 107.17 ± 2.03; n = 8 % of the controls
12 | CCCCc1c(-c2ccccc2)nc(N)nc1-c1cc2ccccc2o1 [Substance 116] | 49.17 ± 9.72; n = 4 μmol · 1^−1 | 72.69 ± 10.36; n = 4 % of the controls | 95.24 ± 4.78; n = 8 % of the controls
13 | CCCCc1c(-c2ccc(OC)cc2)nc(N)nc1-c1cc2ccccc2o1 [Substance 117] | 64.65 ± 4.88; n = 2 μmol · 1^−1 | 89.91 ± 4.02; n = 6 % of the controls | 75.92 ± 9.72; n = 8 % of the controls
14 | CCCCc1c(-c2ccccn2)nc(N)nc1-c1cc2ccccc2o1 [Substance 118] | 52.17 ± 14.96; n = 6 μmol · 1^−1 | 56.53 ± 3.33; n = 8 % of the controls | 91.38 ± 4.41; n = 8 % of the controls

Further lines, with some results ahead:

Row | Production of prostaglandins IC50 (μmol · 1^−1) average value and range of values [1] | SMILES | Production of nitric oxide in % of the controls [2] | Cell viabilities in % of the controls (peritoneal cells of mice)
15 | 38.84 ± 15.99; n = 4 μmol · 1^−1 | CCCCc1c(-c2ccccc2)nc(N)nc1-c1ccco1 [Substance 94] | 39.73 ± 5.57; n = 6 % of the controls | 104.21 ± 14.38; n = 8 % of the controls
16 | 70.79 ± 11.61; n = 4 μmol · 1^−1 | CCCCc1c(-c2ccc(F)cc2)nc(N)nc1-c1ccco1 [Substance 95] | 61.96 ± 6.41; n = 6 % of the controls | 119.71 ± 4.71; n = 8 % of the controls
17 | 43.05 ± 21.74; n = 4 μmol · 1^−1 | CCCCc1c(-c2ccc(OC)cc2)nc(N)nc1-c1ccco1 [Substance 96] | 50.99 ± 2.60; n = 4 % of the controls | 113.53 ± 4.93; n = 8 % of the controls
18 | 48.18 ± 19.94; n = 4 μmol · 1^−1 | CCCCc1c(-c2cccnc2)nc(N)nc1-c1ccco1 [Substance 97] | 37.05 ± 6.68; n = 6 % of the controls | 45.54 ± 4.96; n = 8 % of the controls
19 | 62.49 ± 11.98; n = 4 μmol · 1^−1 | CCCCc1c(-c2ccncc2)nc(N)nc1-c1ccco1 [Substance 98] | 54.42 ± 2.64; n = 6 % of the controls | 69.84 ± 3.62; n = 8 % of the controls
20 | 13.25 ± 6.33; n = 4 μmol · 1^−1 | CCCCc1c(-c2ccco2)nc(N)nc1-c1cccs1 [Substance 99] | 31.27 ± 2.12; n = 4 % of the controls | 55.22 ± 5.10; n = 4 % of the controls
21 | 22.46 ± 7.25; n = 2 μmol · 1^−1 | CCCCc1c(-c2ccco2)nc(N)nc1-c1ccco1 [Substance 100] | 33.70 ± 2.71; n = 6 % of the controls | 69.04 ± 4.47; n = 8 % of the controls
22 | 54.8 ± 10.70; n = 6 μmol · 1^−1 | CCCCc1c(-c2ccccc2)nc(N)nc1-c1ccoc1 [Substance 102] | 68.34 ± 4.63; n = 6 % of the controls | 110.35 ± 5.69; n = 8 % of the controls
23 | 66.80 ± 8.64; n = 4 μmol · 1^−1 | CCCCc1c(-c2ccc(F)cc2)nc(N)nc1-c1ccoc1 [Substance 103] | 66.44 ± 3.19; n = 6 % of the controls | 147.62 ± 3.25; n = 8 % of the controls
24 | 57.52 ± 12.44; n = 6 μmol · 1^−1 | CCCCc1c(-c2ccc(OC)cc2)nc(N)nc1-c1ccoc1 [Substance 104] | 71.20 ± 2.85; n = 6 % of the controls | 137.10 ± 2.72; n = 12 % of the controls
25 | 47.21 ± 2.59; n = 2 μmol · 1^−1 | CCCCc1c(-c2ccc(F)cc2)nc(N)nc1-c1ccsc1 [Substance 108] | 64.92 ± 2.30; n = 4 % of the controls | 124.71 ± 15.20; n = 4 % of the controls
26 | 4.9 ± 1.72; n = 4 μmol · 1^−1 | CCCCc1c(-c2ccc(OC)cc2)nc(N)nc1-c1ccsc1 [Substance 109] | 73.38 ± 4.58; n = 6 % of the controls | 120.58 ± 7.53; n = 8 % of the controls
27 | 55.24 ± 7.98; n = 4 μmol · 1^−1 | CCCCc1c(-c2ccsc2)nc(N)nc1-c1ccco1 [Substance 112] | 47.96 ± 4.90; n = 6 % of the controls | 92.77 ± 7.75; n = 12 % of the controls
